According to patent US20220249596A1, “PIC1 PEPTIDE COMPOSITIONS AND METHODS OF USE THEREOF FOR TREATMENT OF HYPOXIC ISCHEMIC ENCEPHALOPATHY” (REALTA HOLDINGS, LLC, priority 2019, published 2022):
No end group written: not given here.

Columns and labels:
Assay type in all cases: in vivo, rat
[1] = Barnes maze, spatial learning and memory
Experimental: Spatial learning and memory were evaluated by measuring navigational ability of rats in a Barnes maze 8 weeks after initial injury. The Barnes maze tests memory across test sessions or trials and is more closely related to long-term memory. The test was performed using a Plexiglas maze 122 cm in diameter, with 20 equidistant holes (10.5 cm diameter) spaced every […], and centered 20 cm from the outer perimeter. An escape box (8 cm in depth) was placed under one of the holes. The position of the escape box was varied randomly from rat to rat, but kept constant for a given rat throughout testing. A floodlight was placed over the maze to serve as an aversive stimulus.
Prior to testing, the rats underwent habituation sessions once a day for 5 consecutive days. In each session, the rats were placed in a holding box in the middle of the maze and allowed to get acclimated for 60 seconds. The holding box was then lifted up from the rats so that the rats were allowed to explore. The test was over when either the rat found the burrowing hole and burrowed for 10 seconds or the 5-minute time limit was reached. […] On the 14th day after the habituation sessions, the rats were tested to evaluate memory retention. Latency to investigate any hole, escape latency, and number of errors during the test trials were analyzed by two-way ANOVA, followed by Bonferroni's post hoc comparison matrix. The same measurements recorded during the memory retention test were analyzed by Student's t-test. Significance was considered at p<0.05.

[2] = system: systemic complement activity; experiment: Complement hemolytic assay (sensitized human erythrocytes) with plasma of injected neonatal rats
Experimental: Complement activity was assayed in plasma after i.p. injection of PIC1 in term-equivalent neonatal rats. At post-natal day 7 (P7; day of birth=P1), the rat brain is histologically similar to that of a 32- to 34-week gestation human fetus or newborn infant, i.e., cerebral cortical neuronal layering is complete, the germinal matrix is involuting, and white matter as yet has undergone little myelination. Hypoxic-ischemic brain damage in the 7-day-old rat pups is induced with unilateral common carotid artery ligation followed by systemic hypoxia produced by the inhalation of 8% oxygen/balance nitrogen, at constant temperature (37° C.) (Vanucci et al. 2005. Dev Neurosci, Vol. 27, pages 81-86).
Timed pregnant Wistar rats (Hilltop Lab Animals Inc., Scottdale, Pa.) were purchased at embryonic day 19, housed individually, and allowed to deliver spontaneously. Pups were randomized on the day of birth to control for the litter effect (10/litter). At P10-12 (term-equivalent), pups were randomly assigned to 4 different treatment groups: no intervention (control), normothermia (NT), hypothermia-treated vehicle controls (HT), and treatment (PIC1). NT and HT animals were injected with the vehicle used to suspend PIC1. Experimental animals underwent unilateral carotid ligation followed by exposure to hypoxia (8% O2/balanced nitrogen, Vannucci model) for 45 minutes. Pups in the HT group were placed in open jars in a temperature controlled chamber set to 28-30° C. to maintain a target rectal temperature of 31-32° C. for 6 hours, while pups in the control, NT, and PIC1 groups were kept in a separate chamber at 37° C. Pups in the PIC1 group were injected with 2 doses of PIC1 (160 mg/kg, i.p.), with the first dose at the time of carotid ligation, and the second dose four hours later. After intervention, pups were placed back with the dam, and harvested at different time points.
Cobra-venom factor (CVF) was injected i.p. into one group of animals to deplete complement activity in vivo 24 hours prior to carotid ligation. On the day of surgery, a group of animals was injected with 160 mg/kg of PIC1 i.p. at the time of carotid ligation. The animals were harvested at 0.5-48 hours after injection, and plasma was collected by cardiac puncture.
Human AB erythrocytes were derived from healthy human volunteers. The erythrocytes were sensitized as described in Bonaparte et al. using rat anti-human glycophorin A IgG (LifeSpan Biosciences, Inc., Seattle, Wash.). Sensitized cells (5×10^7), serum, and GVBS^++ (Veronal-buffered saline, 0.1% gelatin, 0.15 mM CaCl2, and 1.0 mM MgCl) were combined in a total volume of 375 μl , and incubated for 1 hour at 37° C. in borosilicate glass tubes. […] The tubes were centrifuged and the absorbance of the supernatants was measured in a spectrophotometer at 412 nm.

C1q = experiment: Systemic C1q level in plasma, fluorescent immunoassay; details: 8, 12 and 24 hours after initial insult, P<0.05
Experimental: The local and systemic effects of NT, HT and PIC1 treatment on the complement cascade were measured. CNS C1q levels and systemic C1q and C5a levels were measured using a fluorescent immunoassay.
Systemic C1q and C5a levels were measured as follows. 100 μl of 1:5 plasma in 1×PBS was added to the wells of a plate described above and incubated overnight at 4° C. The plates were washed 3 times with PBST and blocked with NDS or NGS for one hour. Samples were probed with either 1:50 goat anti-human C1q (Complement Technology) in NDS or 1:200 mouse anti-human C5a (Human Complement Component C5a DuoSet ELISA, R&D Systems, Inc., Minneapolis, Minn.) in NGS for one hour at RT. The wells were washed and 1:500 donkey anti-goat 488 (Life Technologies) in NDS or 1:500 goat anti-mouse AF 568 (Life Technologies) in NGS was added, and incubated for one hour at RT. The wells were washed and the plate read using a Synergy HT (BioTek). Systemic C3a levels in plasma (1:20 dilution) were measured using a standard ELISA, according to the manufacturer's instructions (Rat C3a ELISA Kit, TSZ ELISA, Waltham, Mass.).

## IALILEPICCQERAA-dPEG24 (cysteine pairing not given here) [PIC1]
[1]; 8 weeks after injury, versus NT and HT animals
  Barnes maze: latency in finding the escape hole: significantly shorter
[1]; direct versus random or serial strategy
  Barnes maze: seeking strategy: more likely to use a direct strategy
[1]; versus HT-treated animals
  Barnes maze: errors in finding the escape hole: significantly fewer
[1]; versus NT animals, P=0.06, not statistically significant
  Barnes maze: errors in finding the escape hole: trended towards fewer errors
[2]; 30 minutes after i.p. injection, 160 mg/kg, plasma
  inhibition of systemic complement activation: 70%
[2]; gradual return after i.p. injection, 160 mg/kg
  return of complement activity to baseline, time after injection: ≤ 8 h
[2]; versus untreated NT animals, P<0.05
  systemic complement inhibition at 0.5, 1, 2 and 4 hours after injection: significant systemic complement inhibition
[2]; versus untreated controls
  complement activity at 8, 16 and 48 hours after injection: comparable to that of untreated controls
C1q
  C1q levels in plasma, NT animals relative to PIC1-treated animals: significantly higher
